Experimental data reported in patent US10626106B2, “Substituted pyrrolidine amides I” (Gruenenthal GmbH, priority 2017, dated 2020).

Each compound was assayed against T1, Human Glucocorticoid Receptor (hGR) (Homo sapiens, UniProt P04150) (assay: Human Glucocorticoid Receptor (hGR) Ligand-Binding Assay (competitive 3H-dexamethasone binding, IM9 cytosol)). Conditions: compound at 1 μM; competition with 3H-dexamethasone; cytosol of IM9 cells; read-out: % inhibition hGR at 1 μM.
T1 construct: the resultant supernatant (=cytosol of IM9 cells) was centrifuged at 103,000 g for 60 minutes; host or cells: IM9 human lymphoblast cell line (cytosol fraction)
T1 sequence (P04150 1-777): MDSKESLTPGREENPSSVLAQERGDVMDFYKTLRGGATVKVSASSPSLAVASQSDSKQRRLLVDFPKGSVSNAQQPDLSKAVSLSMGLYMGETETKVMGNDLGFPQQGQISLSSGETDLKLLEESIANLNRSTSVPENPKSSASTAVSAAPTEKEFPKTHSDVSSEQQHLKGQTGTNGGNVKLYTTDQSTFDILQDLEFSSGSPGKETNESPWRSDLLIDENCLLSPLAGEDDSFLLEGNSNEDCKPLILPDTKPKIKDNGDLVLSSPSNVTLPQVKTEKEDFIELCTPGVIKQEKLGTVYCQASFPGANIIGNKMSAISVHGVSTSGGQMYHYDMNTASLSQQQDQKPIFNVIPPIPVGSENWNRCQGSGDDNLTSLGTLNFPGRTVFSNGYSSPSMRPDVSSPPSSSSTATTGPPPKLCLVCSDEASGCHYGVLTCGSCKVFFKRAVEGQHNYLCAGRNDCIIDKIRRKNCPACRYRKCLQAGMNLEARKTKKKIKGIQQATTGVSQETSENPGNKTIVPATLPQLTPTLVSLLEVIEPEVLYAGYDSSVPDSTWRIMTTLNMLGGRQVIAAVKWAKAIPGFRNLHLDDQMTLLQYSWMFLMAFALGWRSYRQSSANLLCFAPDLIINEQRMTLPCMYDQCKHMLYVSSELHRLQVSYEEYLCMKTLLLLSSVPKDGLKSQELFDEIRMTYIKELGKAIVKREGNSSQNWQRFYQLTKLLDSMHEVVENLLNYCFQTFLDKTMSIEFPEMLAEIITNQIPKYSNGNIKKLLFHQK
Excerpt: Human Glucocorticoid Receptor (hGR) Ligand-Binding Assay
Potential selective glucocorticoid receptor modulators of this intervention can be tested for their binding affinity at the glucocorticoid receptor using the binding assay described below.
Preferably, the glucocortitcoid receptor extracted from cytosol of IM9 cells is used for competitive radioligand binding assays to calculate the IC50 values and binding affinity (Ki value) of the compounds according to the present invention. Preferably, a fixed concentration of the radioligand 3H-dexamethasone and a range of concentrations of compounds according to the present invention (as unlabeled competitors of dexamethasone) are mixed with the extracted glucocorticoid receptor in order to measure the potency/affinity with which they compete for the binding of the radioligand. Preferably, by using competition curves the IC50 which is the concentration of competing ligand that displaces 50% of the specific binding of the radioligand is determined. Finally this IC50 value is converted to a Ki value.
The human lymphoblast cell line IM9 (ATCC, Bethesda, Md.) were cultivated in RPMI 1640 media containing 10% fetal bovine serum, penicillin (100 U/ml), streptomycin (100 μg/ml), and 2 mM L-glutamine at […] and 7% CO2 in a humidified incubator. Cells were centrifuged for 10 minutes at 1500 g and were washed in PBS and repelleted. Cell were then resuspended in homogenization buffer consisting of: 10 mM TES, 10 mM sodium molybdate, 1 mM EDTA, pH 7.4, 20 mM 2-mercaptoethanol, and 10% glycerol. Disruption of the cells was performed by nitrogen cavitation using 2×15 minutes at 600 to 750 psi nitrogen in a N2 cavitator at 0° C. The cell preparation was then centrifuged at 27,000 g for 15 minutes, and the resultant supernatant (=cytosol of IM9 cells) was centrifuged at 103,000 g for 60 minutes at 4° C. The amount of protein in the supernatant fraction was determined using a BCA assay kit and aliquots were snap frozen in a dry ice-acetone bath and stored at −70° C. Competitive binding assays were done in duplicate in homogenization buffer with a total volume of 200 μl. To this end, 1 mg of IM9 cytosol, 0.05 μCi (1.5 nM) of 3H-dexamethasone […] and compounds according to the present invention (=unlabeled competitors of dexamethasone; range of concentrations) were mixed. The reaction was stopped after incubation at 0° C. for 16 to 18 hours by the addition of 100 μl of a charcoal-dextran mixture (2% activated charcoal, 0.5% dextran in 10 mM Tris, 1 mM EDTA, pH 7.4). Another incubation step at 0° C. for 10 minutes followed before the samples were centrifuged for 5 minutes at 8200 g. 100 μl of the supernatant) was finally assayed for radioactivity by liquid scintillationspectrometry, and the IC50 values were determined graphically and were converted to Ki values.

Row | SMILES | inhibition at 1 µM [%]
1 | Cn1cc(-n2ncc3cc(N4C(=O)C[C@H](NC(=O)c5cscn5)[C@H]4c4ccccc4)ccc32)ccc1=O [Example 44, N-[(2R,3S)-1-[1-(1-methyl-6-oxo-3-pyridyl)indazol-5-yl]-5-oxo-2-phenyl-pyrrolidin-3-yl]thiazole-4-carboxamide] | 60 to 85
2 | Cn1ccc(C(=O)N[C@H]2CC(=O)N(c3ccc4c(cnn4-c4ccc(=O)n(C)c4)c3)[C@@H]2c2ccccc2)n1 [Example 45, 1-methyl-N-[(2R,3S)-1-[1-(1-methyl-6-oxo-3-pyridyl)indazol-5-yl]-5-oxo-2-phenyl-pyrrolidin-3-yl]pyrazole-3-carboxamide] | 60 to 85
3 | Cn1cc(-n2ncc3cc(N4C(=O)C[C@H](NC(=O)c5ncco5)[C@H]4c4ccccc4)ccc32)ccc1=O [Example 49, N-[(2R,3S)-1-[1-(1-methyl-6-oxo-3-pyridyl)indazol-5-yl]-5-oxo-2-phenyl-pyrrolidin-3-yl]oxazole-2-carboxamide] | > 85

Now from value to compound:

Row | inhibition at 1 µM [%] | SMILES
4 | 60 to 85 | Cn1cc(-n2ncc3cc(N4C(=O)C[C@H](NC(=O)[C@H]5CCCO5)[C@H]4c4ccccc4)ccc32)ccc1=O [Example 48, (R)—N-[(2R,3S)-1-[1-(1-methyl-6-oxo-3-pyridyl)indazol-5-yl]-5-oxo-2-phenyl-pyrrolidin-3-yl]tetrahydrofuran-2-carboxamide]
5 | 60 to 85 | Cn1cc(-n2ncc3cc(N4C(=O)C[C@H](NC(=O)c5cocn5)[C@H]4c4ccccc4)ccc32)ccc1=O [Example 50, N-[(2R,3S)-1-[1-(1-methyl-6-oxo-3-pyridyl)indazol-5-yl]-5-oxo-2-phenyl-pyrrolidin-3-yl]oxazole-4-carboxamide]
6 | > 85 | Cc1nc(C(=O)N[C@H]2CC(=O)N(c3ccc4c(cnn4-c4ccc(=O)n(C)c4)c3)[C@@H]2c2ccccc2)no1 [Example 51, 5-methyl-N-[(2R,3S)-1-[1-(1-methyl-6-oxo-3-pyridyl)indazol-5-yl]-5-oxo-2-phenyl-pyrrolidin-3-yl]-1,2,4-oxadiazole-3-carboxamide]
